pIC50: −log10 of the molar value. Some results are limits rather than exact numbers.

Series [1] addresses T1, Protein mono-ADP-ribosyltransferase PARP3 (Homo sapiens, UniProt Q9Y6F1).
T1 sequence (Q9Y6F1 whole entry): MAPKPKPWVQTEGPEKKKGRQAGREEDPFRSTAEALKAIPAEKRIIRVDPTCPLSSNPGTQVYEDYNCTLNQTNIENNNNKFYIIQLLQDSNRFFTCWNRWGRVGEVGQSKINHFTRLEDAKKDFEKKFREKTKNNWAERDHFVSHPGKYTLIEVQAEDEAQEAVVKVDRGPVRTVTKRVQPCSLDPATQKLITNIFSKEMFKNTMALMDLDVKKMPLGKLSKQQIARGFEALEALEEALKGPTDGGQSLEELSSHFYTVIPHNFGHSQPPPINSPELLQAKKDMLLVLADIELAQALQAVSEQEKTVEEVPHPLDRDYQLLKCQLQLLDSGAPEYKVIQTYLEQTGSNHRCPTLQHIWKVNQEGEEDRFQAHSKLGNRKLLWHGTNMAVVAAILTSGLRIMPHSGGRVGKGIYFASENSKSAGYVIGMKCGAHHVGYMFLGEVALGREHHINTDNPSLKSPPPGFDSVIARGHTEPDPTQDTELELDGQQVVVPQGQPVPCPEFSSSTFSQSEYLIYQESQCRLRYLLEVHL
In words: Inhibition of full-length human ARTD3 using 500 nM NAD substrate after 1 hrs incubation.

In series [2] the target is T2, Protein mono-ADP-ribosyltransferase PARP10 (Homo sapiens, UniProt Q53GL7).
T2 sequence (Q53GL7 whole entry): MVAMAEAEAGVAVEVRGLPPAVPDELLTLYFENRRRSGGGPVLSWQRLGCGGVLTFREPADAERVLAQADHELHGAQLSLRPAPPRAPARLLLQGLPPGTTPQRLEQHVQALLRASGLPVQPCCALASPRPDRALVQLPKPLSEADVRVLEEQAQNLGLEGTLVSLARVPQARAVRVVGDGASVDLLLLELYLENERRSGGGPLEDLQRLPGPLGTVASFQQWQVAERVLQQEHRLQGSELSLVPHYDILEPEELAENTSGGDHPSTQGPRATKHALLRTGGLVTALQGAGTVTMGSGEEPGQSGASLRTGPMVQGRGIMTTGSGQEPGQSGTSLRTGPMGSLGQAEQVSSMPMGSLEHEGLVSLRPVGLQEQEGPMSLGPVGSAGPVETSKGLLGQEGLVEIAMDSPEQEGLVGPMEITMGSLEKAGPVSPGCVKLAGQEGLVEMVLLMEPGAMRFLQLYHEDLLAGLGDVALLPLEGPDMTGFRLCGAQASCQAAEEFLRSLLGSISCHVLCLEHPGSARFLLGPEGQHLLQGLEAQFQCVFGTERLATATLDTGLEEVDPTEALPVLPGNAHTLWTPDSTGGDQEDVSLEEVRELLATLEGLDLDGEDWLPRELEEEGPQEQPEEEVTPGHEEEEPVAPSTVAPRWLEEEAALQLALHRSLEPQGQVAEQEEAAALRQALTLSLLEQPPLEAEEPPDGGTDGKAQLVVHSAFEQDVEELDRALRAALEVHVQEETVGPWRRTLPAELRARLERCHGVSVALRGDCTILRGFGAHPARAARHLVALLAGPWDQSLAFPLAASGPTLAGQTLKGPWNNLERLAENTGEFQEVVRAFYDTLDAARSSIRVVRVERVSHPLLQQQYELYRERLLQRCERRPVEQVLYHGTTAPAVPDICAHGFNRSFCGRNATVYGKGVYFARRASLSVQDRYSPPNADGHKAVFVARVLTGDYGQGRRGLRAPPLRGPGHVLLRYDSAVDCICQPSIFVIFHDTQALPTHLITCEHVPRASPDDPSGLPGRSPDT
In words: Inhibition of human ARTD10 (809 to 1017) using 500 nM NAD substrate at 10 uM after 2.5 hrs incubation.

In series [3] the target is T3, Poly [ADP-ribose] polymerase tankyrase-1 (Homo sapiens, UniProt O95271).
T3 sequence (O95271 whole entry): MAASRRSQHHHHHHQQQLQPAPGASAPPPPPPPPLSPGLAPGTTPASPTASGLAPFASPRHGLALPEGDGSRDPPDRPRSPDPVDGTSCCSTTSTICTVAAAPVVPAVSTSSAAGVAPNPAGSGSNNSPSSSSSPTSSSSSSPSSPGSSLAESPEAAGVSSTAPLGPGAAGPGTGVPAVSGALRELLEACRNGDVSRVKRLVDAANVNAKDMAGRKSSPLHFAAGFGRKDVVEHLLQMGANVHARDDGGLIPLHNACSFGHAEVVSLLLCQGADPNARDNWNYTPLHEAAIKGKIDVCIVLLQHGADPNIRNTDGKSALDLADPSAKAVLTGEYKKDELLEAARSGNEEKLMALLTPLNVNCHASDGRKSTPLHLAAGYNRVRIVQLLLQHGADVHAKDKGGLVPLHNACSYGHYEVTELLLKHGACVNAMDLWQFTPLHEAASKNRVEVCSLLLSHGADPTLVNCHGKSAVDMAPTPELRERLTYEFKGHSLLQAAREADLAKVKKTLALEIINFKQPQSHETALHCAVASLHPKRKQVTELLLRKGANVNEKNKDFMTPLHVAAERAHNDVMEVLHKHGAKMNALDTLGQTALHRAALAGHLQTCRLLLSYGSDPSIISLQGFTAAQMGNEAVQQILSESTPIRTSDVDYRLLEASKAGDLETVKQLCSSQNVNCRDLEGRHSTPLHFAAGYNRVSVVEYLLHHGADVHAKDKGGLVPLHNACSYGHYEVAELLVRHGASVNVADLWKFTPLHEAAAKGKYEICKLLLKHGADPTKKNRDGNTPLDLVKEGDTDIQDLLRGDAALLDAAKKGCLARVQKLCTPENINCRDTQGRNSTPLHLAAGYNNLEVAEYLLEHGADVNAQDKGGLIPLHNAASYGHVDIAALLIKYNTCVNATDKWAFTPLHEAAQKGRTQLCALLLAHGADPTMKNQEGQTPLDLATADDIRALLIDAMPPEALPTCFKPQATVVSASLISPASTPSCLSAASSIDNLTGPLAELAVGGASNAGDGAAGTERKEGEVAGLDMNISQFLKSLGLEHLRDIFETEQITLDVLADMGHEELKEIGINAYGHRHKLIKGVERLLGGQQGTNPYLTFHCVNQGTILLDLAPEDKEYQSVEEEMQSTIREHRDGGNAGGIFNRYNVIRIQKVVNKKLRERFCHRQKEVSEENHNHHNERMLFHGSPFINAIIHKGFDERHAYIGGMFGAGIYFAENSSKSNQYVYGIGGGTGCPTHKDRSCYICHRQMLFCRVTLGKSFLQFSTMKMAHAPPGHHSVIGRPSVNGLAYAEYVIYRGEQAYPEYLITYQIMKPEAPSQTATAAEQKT
In words: Inhibition of human TNKS1 (1030 to 1317) using NAD substrate after 20 mins incubation by fluorescence assay.

Another series deals with HEK293. The series is described as follows: Cytotoxicity against HEK293 cells assessed as cell viability at 2.5 to 10 uM. Type of series: cell-based. Conditions: human, hek293, 10 µM.
For series [4], the target named is Protein mono-ADP-ribosyltransferase PARP4 (Homo sapiens, UniProt Q9UKK3). The series is described as follows: Inhibition of human ARTD4 (250 to 565) using 500 nM NAD substrate after 2.5 hrs incubation.
Chain of Protein mono-ADP-ribosyltransferase PARP4 (Q9UKK3 whole entry): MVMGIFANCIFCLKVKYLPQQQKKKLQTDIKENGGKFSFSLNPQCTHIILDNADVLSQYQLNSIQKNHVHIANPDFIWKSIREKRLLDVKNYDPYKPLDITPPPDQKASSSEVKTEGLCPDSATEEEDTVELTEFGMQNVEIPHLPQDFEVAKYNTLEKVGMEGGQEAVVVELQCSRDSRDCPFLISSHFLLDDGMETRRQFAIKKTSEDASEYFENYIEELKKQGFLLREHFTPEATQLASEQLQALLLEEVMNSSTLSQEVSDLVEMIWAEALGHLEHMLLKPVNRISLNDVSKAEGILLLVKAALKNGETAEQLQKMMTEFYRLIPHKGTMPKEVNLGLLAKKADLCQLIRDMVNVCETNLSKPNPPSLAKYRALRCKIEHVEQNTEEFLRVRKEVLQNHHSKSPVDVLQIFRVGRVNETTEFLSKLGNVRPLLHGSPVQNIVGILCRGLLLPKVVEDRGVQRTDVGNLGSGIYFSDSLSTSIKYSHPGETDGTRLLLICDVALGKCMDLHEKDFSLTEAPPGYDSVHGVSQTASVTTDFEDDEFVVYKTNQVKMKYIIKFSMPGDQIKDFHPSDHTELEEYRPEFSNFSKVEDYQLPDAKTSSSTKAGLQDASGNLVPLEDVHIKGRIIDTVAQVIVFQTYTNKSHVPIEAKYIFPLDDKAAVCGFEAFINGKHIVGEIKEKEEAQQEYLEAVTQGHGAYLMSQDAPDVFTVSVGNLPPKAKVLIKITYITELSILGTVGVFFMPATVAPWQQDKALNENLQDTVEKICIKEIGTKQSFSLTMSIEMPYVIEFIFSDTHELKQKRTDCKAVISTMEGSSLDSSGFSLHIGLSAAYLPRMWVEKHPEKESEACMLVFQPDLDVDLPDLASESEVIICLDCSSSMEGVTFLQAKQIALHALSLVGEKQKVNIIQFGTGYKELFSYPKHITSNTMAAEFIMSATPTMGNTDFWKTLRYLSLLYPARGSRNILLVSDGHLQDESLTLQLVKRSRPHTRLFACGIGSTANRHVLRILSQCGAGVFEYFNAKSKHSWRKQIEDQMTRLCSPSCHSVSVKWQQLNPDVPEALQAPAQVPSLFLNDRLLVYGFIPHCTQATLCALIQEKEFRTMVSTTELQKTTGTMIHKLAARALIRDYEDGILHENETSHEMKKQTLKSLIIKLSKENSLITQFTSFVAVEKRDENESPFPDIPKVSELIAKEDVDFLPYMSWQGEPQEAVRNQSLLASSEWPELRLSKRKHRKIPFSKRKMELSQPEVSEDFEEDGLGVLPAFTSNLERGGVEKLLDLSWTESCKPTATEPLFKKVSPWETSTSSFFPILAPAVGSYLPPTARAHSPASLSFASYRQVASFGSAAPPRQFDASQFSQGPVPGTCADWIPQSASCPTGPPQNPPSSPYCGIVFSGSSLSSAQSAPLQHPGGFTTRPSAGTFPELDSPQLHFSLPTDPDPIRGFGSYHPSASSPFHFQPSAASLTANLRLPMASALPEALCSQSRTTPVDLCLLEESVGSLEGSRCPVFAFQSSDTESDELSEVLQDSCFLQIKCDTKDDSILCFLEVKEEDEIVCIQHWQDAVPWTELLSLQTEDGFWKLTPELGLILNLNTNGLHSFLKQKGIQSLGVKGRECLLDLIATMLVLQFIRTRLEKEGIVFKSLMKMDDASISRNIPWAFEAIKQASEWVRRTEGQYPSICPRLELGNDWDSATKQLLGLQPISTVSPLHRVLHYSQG

The pIC50 is the IC50 on a negative log10 scale, so that one unit is a factor of ten. A higher pIC50 goes with a low IC50. For the compound `CC(C)c1ccc(C2NC(=O)c3ccccc3N2)cc1` (stereo not given), the pIC50 is 4.30 in series [1], < 5.00 in series [2], 5.96 in series [3] and < 4.00 in series [4]. For the same compound, in the series with HEK293, the Activity entry is given as “Non-toxic”.
Taken in the same sequence, the figures for `CC(C)(C)c1ccc(C2NC(=O)c3ccccc3N2)cc1` (stereo not given) were 4.47, < 5.00, 6.21, < 4.00 and “Non-toxic”.

The values are drawn from ChEMBL document CHEMBL3593161, “Discovery of potent and selective nonplanar tankyrase inhibiting nicotinamide mimics” (Bioorg Med Chem, 2015).
